Assay results published in patent US5646249A, “Isolation and characterization of a novel chaperone protein” (The United States of America as represented by the …, priority 1994, dated 1997).

Biological target: T1, human STCH, GST-STCH fusion protein representing STCH codons 4-471 (SEQ ID NO: 2) (Homo sapiens, UniProt P48723)
T1 construct: near full-length GST-STCH fusion protein, representing STCH codons 4-471; made in house; host or cells: E. coli HB101
T1 sequence (P48723 4-471): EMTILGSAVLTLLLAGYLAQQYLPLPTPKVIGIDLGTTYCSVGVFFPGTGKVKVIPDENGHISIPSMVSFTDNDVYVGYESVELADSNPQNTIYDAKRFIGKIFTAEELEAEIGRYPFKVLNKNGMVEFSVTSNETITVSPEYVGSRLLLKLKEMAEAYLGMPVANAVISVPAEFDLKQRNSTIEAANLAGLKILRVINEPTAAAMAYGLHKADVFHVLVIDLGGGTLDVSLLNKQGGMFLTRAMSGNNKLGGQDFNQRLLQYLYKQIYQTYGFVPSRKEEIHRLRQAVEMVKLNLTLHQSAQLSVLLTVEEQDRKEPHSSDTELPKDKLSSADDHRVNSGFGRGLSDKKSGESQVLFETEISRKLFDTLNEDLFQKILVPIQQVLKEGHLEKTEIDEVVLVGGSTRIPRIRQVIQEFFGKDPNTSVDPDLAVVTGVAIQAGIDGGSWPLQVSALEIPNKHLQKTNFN
Experiment: ATPase assay of purified GST-STCH fusion protein
Assay type: biochemical
Settings: read-out: Km for the unstimulated STCH ATPase (ATP); unstimulated (no peptide), 37° C., recombinant GST-STCH codons 4-471
Experimental: Inspection of the primary amino acid sequence of the STCH product predicts a functional ATPase molecule. ATPase activity was tested using a GST -Stch plasmid that encoded a functional fusion protein including STCH codons 4-471 (See Table II and SEQ ID NO: 1). A preferred strategy for preparing this fusion protein is provided in Example III and a preferred strategy for performing ATPase assays is provided in Example VI. To exclude contaminating sources of ATPase, the GST leader peptide and the GST-STCH affinity-purified fusion proteins were eluted off glutathione--Sepharose beads, then purified by anion-exchange chromatography (mono Q) and the protein composition of the column fractions was analyzed by SDS--PAGE. The peak ATPase activity of the GST --STCH product coincided with fractions 11 and 12. While no measurable ATPase activity was detected in fractions 11 and 12 from the GST leader sequence. These fractions were pooled from the GST--STCH sample and ATPase activity was measured in the presence or absence of two different peptides. […] The Km for the unstimulated STCH ATPase was 2-3 μM ATP and the measured ATPase activity was linear with respect to time and concentration over the range tested. […]

- Km: 2 to 3 µM
SMILES: Nc1ncnc2c1ncn2[C@@H]1O[C@H](COP(=O)(O)OP(=O)(O)OP(=O)(O)O)[C@@H](O)[C@H]1O [ATP]
